How the values were obtained:
[1] = tested on: Jurkat; experiment: Antiproliferative activity against human Jurkat cells after 72 hrs by MTT assay; assay type: functional, cell-based
[2] = tested on: MCF7; experiment: Antiproliferative activity against human MCF7 cells after 72 hrs by MTT assay; assay type: functional, cell-based; conditions: MCF7, 72 h
[3] = tested on: MDA-MB-231; experiment: Antiproliferative activity against human MDA-MB-231 cells after 72 hrs by MTT assay; assay type: functional, cell-based; conditions: MDA-MB-231, 72 h
[4] = tested on: HCT-116; experiment: Antiproliferative activity against human HCT116 cells after 72 hrs by MTT assay; assay type: functional, cell-based; conditions: HCT-116, 72 h
[5] = tested on: HEL 92.1.7; experiment: cells; assay type: functional, cell-based; conditions: Homo sapiens, HEL 92.1.7, 72 h
Description: Antiproliferative activity against human HEL 92.1.7 cells after 72 hrs by MTT assay

[6] = Antiproliferative activity against human AC10 cells after 72 hrs by MTT assay; assay type: cell-based
[7] = Antiproliferative activity against human XG6 cells after 72 hrs by MTT assay; assay type: functional, cell-based; conditions: XG6, 72 h
[8] = molecular target: T1, Protein deacetylase HDAC6 (Homo sapiens, UniProt Q9UBN7); experiment: Inhibition of HDAC6 (unknown origin) using Arg-His-Lys-Lys(Ac) as substrate preincubated with enzyme followed by substrate addition for 2 hrs and measured for 1.5 hrs at 15 mins time interval by fluorescence assay
T1 sequence (Q9UBN7 whole entry): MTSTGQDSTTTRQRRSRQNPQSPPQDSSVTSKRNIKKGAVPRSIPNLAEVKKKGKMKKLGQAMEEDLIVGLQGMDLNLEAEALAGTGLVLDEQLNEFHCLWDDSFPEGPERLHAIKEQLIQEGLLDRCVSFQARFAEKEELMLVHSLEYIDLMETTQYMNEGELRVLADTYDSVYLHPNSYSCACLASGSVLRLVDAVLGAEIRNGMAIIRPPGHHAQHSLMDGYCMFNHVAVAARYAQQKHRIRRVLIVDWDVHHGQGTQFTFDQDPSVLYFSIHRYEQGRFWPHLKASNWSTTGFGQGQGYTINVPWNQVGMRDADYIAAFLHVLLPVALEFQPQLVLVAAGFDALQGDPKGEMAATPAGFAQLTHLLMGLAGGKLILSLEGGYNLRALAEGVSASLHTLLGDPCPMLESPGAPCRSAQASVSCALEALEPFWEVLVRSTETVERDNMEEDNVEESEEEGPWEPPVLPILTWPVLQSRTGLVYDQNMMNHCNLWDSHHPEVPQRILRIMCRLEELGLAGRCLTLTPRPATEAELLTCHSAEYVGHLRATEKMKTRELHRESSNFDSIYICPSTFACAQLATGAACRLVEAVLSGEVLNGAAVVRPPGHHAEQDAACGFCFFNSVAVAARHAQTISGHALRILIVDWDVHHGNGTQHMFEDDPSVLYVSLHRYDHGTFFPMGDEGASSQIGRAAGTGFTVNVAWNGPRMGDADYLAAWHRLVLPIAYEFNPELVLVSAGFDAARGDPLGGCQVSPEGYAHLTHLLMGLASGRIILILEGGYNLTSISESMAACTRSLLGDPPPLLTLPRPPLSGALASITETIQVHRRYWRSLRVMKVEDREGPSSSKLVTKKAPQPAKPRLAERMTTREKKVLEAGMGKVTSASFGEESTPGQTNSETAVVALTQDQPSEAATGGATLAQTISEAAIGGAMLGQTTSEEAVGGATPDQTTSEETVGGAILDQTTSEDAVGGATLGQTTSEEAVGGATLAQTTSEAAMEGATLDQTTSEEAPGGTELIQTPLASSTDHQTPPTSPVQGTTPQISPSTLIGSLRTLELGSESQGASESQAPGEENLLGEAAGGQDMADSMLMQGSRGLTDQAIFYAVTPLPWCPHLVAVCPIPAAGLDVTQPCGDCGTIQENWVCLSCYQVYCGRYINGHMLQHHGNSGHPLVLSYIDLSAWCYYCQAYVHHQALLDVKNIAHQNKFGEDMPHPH

[9] = molecular target: Histone deacetylase 1 (Homo sapiens, UniProt Q13547); experiment: Inhibition of HDAC1 (unknown origin) using Arg-His-Lys-Lys(Ac) as substrate preincubated with enzyme followed by substrate addition for 2 hrs and measured for 1.5 hrs at 15 mins time interval by fluorescence assay
Histone deacetylase 1, sequence (Q13547 whole entry): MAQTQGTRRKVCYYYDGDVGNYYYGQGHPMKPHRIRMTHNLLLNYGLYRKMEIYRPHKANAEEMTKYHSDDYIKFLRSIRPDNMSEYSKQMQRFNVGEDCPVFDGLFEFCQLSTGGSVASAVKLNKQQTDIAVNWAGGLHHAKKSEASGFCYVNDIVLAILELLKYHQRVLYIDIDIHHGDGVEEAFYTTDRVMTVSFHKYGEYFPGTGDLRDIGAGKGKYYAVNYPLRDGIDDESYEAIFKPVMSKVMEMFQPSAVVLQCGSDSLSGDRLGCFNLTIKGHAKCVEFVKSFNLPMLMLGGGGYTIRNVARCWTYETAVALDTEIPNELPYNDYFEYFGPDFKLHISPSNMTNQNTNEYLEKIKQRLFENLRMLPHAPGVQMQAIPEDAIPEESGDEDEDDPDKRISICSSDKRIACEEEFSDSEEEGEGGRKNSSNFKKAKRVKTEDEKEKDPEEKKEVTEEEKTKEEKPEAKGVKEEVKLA

[10] = Antiproliferative activity against mouse TAMH cells after 72 hrs by MTT assay; assay type: cell-based
[11] = tested on: KMS-12-BM; experiment: Antiproliferative activity against human KMS-12-BM cells after 72 hrs by MTT assay; assay type: functional, cell-based
[12] = tested on: PC-3; experiment: Antiproliferative activity against human PC3 cells after 72 hrs by MTT assay; assay type: functional, cell-based; conditions: PC-3, 72 h
[13] = Selectivity index, ratio of CC50 for mouse TAMH cells to IC50 for human HCT116 cells; assay type: toxicity; conditions: TAMH cells (CC50) and HCT116 cells (IC50)
[14] = Selectivity index, ratio of CC50 for human AC10 cells to IC50 for human MCF7 cells; assay type: toxicity; conditions: AC10 cells (CC50) and MCF7 cells (IC50)
[15] = molecular target: Tyrosine-protein kinase JAK2 (Homo sapiens, UniProt O60674); experiment: Inhibition of human JAK2 using poly(Glu:Tyr)(4:1) as substrate preincubated for 20 mins followed by [gamma33P]ATP addition measured after 120 mins by ion exchange filter paper method
Tyrosine-protein kinase JAK2, sequence (O60674 whole entry): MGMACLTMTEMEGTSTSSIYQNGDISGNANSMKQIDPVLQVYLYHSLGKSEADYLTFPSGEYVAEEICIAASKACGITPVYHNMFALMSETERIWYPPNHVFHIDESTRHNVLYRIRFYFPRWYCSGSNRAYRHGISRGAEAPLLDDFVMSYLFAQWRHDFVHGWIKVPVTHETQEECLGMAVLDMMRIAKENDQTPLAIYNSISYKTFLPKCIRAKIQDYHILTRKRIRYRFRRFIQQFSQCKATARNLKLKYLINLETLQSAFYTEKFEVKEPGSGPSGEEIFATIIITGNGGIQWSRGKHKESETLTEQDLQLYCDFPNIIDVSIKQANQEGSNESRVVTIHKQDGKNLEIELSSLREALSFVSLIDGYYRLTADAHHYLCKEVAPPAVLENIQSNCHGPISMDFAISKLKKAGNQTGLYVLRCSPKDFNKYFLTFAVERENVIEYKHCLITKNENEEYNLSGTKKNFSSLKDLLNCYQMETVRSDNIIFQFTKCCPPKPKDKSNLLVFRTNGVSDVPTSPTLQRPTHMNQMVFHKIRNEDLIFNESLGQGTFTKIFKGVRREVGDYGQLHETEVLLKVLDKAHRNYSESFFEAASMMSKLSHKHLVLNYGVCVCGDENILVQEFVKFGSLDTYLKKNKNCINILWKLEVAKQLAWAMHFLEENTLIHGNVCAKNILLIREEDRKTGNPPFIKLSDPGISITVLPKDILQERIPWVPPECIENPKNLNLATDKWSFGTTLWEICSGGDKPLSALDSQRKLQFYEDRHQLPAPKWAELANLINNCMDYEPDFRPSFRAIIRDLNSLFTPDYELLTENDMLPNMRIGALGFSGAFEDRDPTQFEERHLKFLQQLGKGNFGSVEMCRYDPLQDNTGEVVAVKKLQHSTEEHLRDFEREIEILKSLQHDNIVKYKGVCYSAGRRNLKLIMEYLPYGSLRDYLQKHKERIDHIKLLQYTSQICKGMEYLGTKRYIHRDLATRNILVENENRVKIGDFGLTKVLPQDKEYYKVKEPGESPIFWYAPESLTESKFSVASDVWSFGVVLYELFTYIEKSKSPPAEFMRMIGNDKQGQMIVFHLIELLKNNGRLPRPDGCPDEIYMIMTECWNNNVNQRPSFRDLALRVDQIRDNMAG

[16] = Selectivity index, ratio of CC50 for human AC10 cells to IC50 for human XG6 cells; assay type: toxicity; conditions: AC10 cells (CC50) and XG6 cells (IC50)
[17] = Selectivity index, ratio of CC50 for mouse TAMH cells to IC50 for human KMS-12-BM cells; assay type: toxicity; conditions: TAMH cells (CC50) and KMS-12-BM cells (IC50)
[18] = Selectivity index, ratio of CC50 for human AC10 cells to IC50 for human KMS-12-BM cells; assay type: toxicity; conditions: AC10 cells (CC50) and KMS-12-BM cells (IC50)
[19] = Selectivity index, ratio of CC50 for human AC10 cells to IC50 for human PC3 cells; assay type: toxicity; conditions: AC10 cells (CC50) and PC3 cells (IC50)
[20] = Selectivity index, ratio of CC50 for human AC10 cells to IC50 for human MDA-MB-231 cells; assay type: toxicity; conditions: AC10 cells (CC50) and MDA-MB-231 cells (IC50)
[21] = Selectivity index, ratio of CC50 for mouse TAMH cells to IC50 for human HEL 92.1.7 cells; assay type: toxicity; conditions: TAMH cells (CC50) and HEL 92.1.7 cells (IC50)
[22] = Selectivity index, ratio of CC50 for mouse TAMH cells to IC50 for human XG6 cells; assay type: toxicity; conditions: TAMH cells (CC50) and XG6 cells (IC50)
[23] = Selectivity index, ratio of CC50 for mouse TAMH cells to IC50 for human MDA-MB-231 cells; assay type: toxicity; conditions: TAMH cells (CC50) and MDA-MB-231 cells (IC50)
[24] = Selectivity index, ratio of CC50 for human AC10 cells to IC50 for human HCT116 cells; assay type: toxicity; conditions: AC10 cells (CC50) and HCT116 cells (IC50)
[25] = Selectivity index, ratio of CC50 for mouse TAMH cells to IC50 for human PC3 cells; assay type: toxicity; conditions: TAMH cells (CC50) and PC3 cells (IC50)
[26] = Selectivity index, ratio of CC50 for mouse TAMH cells to IC50 for human Jurkat cells; assay type: toxicity; conditions: TAMH cells (CC50) and Jurkat cells (IC50)
[27] = Selectivity index, ratio of CC50 for mouse TAMH cells to IC50 for human MCF7 cells; assay type: toxicity; conditions: TAMH cells (CC50) and MCF7 cells (IC50)
[28] = Selectivity index, ratio of CC50 for human AC10 cells to IC50 for human HEL 92.1.7 cells; assay type: toxicity; conditions: AC10 cells (CC50) and HEL 92.1.7 cells (IC50)
[29] = Selectivity index, ratio of CC50 for human AC10 cells to IC50 for human Jurkat cells; assay type: toxicity; conditions: AC10 cells (CC50) and Jurkat cells (IC50)

Structure (SMILES)	IC50 [1] [µM]	IC50 [2] [µM]	IC50 [3] [µM]	IC50 [4] [µM]	IC50 [5] [µM]	CC50 at 72 h [6] [µM]	IC50 [7] [µM]	IC50 [8] [µM]	IC50 [9] [µM]	CC50 at 72 h [10] [µM]	IC50 [11] [µM]	IC50 [12] [µM]	selectivity ratio [13]	selectivity ratio [14]	IC50 [15] [µM]	selectivity ratio [19]	selectivity ratio [20]	selectivity ratio [23]	selectivity ratio [24]	selectivity ratio [25]	further results
CC(=O)Nc1ccc(-c2ccnc(Nc3ccc(OCCCCCC(=O)NO)cc3)n2)cc1	1.03	2.01	1.02	1.15	1.36	5.74	1.07	0.0013	0.089	7.39	0.07	1.51	–	–	–	–	–	–	–	–	–
CC(CCCCCC(=O)NO)n1cc(-c2ncnc3[nH]ccc23)cn1 (stereo unspecified)	0.47	0.84	0.79	2.32	1.32	–	2.01	–	–	–	2.02	2.41	–	–	–	–	–	–	–	–	–
CC(=O)Nc1ccc(-c2ccnc(Nc3ccc(OCCCCCCCC(=O)NO)cc3)n2)cc1	3.48	5.53	5.33	1.8	3.92	3.5	10.2	0.014	1.7	9.33	1.96	4.73	–	–	–	–	–	–	–	–	–
CC(=O)Nc1ccc(-c2nc(Nc3cccc(OCCCCCCCC(=O)NO)c3)ncc2C)cc1	9.99	30.8	11.4	18.4	8.96	20.1 to 20.7	8.3	0.0097	4.58	9.14	0.54	32.8	0.5	0.67	0.00293	0.63	1.81	0.8	1.12	0.28	selectivity ratio [16]: 2.49; selectivity ratio [17]: 17; selectivity ratio [18]: 38.3; selectivity ratio [21]: 1.02; selectivity ratio [22]: 1.1; selectivity ratio [26]: 0.91; selectivity ratio [27]: 0.3; selectivity ratio [28]: 2.31; selectivity ratio [29]: 0.23
CC(=O)Nc1ccc(-c2ccnc(Nc3ccc(OCCCCCCC(=O)NO)cc3)n2)cc1	1.77	0.81	1.56	0.99	1.51	2.39	2.08	0.003	0.145	3.66	0.1	1.47	3.7	2.95	0.023	1.63	1.53	2.35	2.41	2.49	selectivity ratio [16]: 1.15; selectivity ratio [17]: 36.6; selectivity ratio [18]: 23.9; selectivity ratio [21]: 2.42; selectivity ratio [22]: 1.76; selectivity ratio [26]: 2.07; selectivity ratio [27]: 4.52; selectivity ratio [28]: 1.58; selectivity ratio [29]: 0.89
CC(=O)Nc1ccc(-c2nc(Nc3ccc(OCCCCCC(=O)NO)cc3)ncc2C)cc1	–	2.37	1.06	0.92	–	16.9	–	0.0035	0.26	5.58	–	2.41	6.07	7.14	0.0256	7.02	16	5.26	18.4	2.32	selectivity ratio [27]: 2.35
Cc1cnc(Nc2ccc(N3CCN(C)CC3)cc2)nc1-c1ccc(NC(=O)CCCCCCC(=O)NO)cc1	–	1.3	0.97	1.05	–	3.72	–	0.0021	0.139	7.48	–	1.04	7.12	2.86	0.0043	3.58	3.84	7.71	3.54	7.19	selectivity ratio [27]: 5.75
CC(=O)Nc1ccc(-c2ccnc(Nc3cccc(NC(=O)CCCCCCC(=O)NO)c3)n2)cc1	> 10	0.32	2.48	1.15	> 10	19.5	–	0.00081	0.0324	12.5	–	0.34	6.36	–	0.0092	–	12.7	8.14	9.91	–	–
CN1CCN(CC(=O)Nc2ccc(-c3ccnc(Nc4ccc(OCCCCCCC(=O)NO)cc4)n3)cc2)CC1	–	4.84	3.88	1.69	–	4.1	–	0.0061	0.142	8.07	–	4.09	4.78	0.85	0.0955	1	1.06	2.08	2.43	1.97	selectivity ratio [27]: 1.67

— ChEMBL document CHEMBL4265943, “Design and synthesis of potent dual inhibitors of JAK2 and HDAC based on fusing the pharmacophores of XL019 and vorinostat” (Eur J Med Chem, 2018)
